Results from US8557796B2, “Substituted 1-oxa-2,8-diaza-spiro [4,5] dec-2-ene derivatives and related treatment methods” (Gruenenthal GmbH, priority 2001, dated 2013).

How the values were obtained:
NA transporter = target: T1, NA transporter (Rattus norvegicus, UniProt Q9WTR4); assay: Noradrenalin uptake inhibition (NA-uptake) in synaptosomes; format: biochemical; settings: rat hypothalamus synaptosomes
T1 construct: synaptosomes from rat brain regions were freshly isolated; from tissue; host or cells: P2 synaptosome fraction from hypothalamus of male rat brain
T1 sequence (Q9WTR4 1-597): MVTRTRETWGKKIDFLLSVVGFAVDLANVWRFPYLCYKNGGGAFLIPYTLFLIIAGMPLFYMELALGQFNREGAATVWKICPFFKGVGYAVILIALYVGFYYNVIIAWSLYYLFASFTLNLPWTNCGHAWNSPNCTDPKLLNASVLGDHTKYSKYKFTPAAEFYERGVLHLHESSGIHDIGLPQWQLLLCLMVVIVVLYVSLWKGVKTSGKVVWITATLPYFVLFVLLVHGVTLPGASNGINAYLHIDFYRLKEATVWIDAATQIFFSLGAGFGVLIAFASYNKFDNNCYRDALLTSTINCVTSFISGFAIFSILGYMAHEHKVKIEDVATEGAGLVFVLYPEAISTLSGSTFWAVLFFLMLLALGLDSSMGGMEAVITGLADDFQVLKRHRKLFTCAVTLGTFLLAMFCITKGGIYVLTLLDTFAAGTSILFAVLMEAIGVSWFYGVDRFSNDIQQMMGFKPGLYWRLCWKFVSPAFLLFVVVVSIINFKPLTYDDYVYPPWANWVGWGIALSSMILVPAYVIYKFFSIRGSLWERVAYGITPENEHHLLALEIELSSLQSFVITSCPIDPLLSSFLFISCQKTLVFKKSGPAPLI
Source text: Tests on Noradrenalin Uptake Inhibition (NA-Uptake Inhibition)
In order to be able to carry out these in vitro studies, synaptosomes from rat brain regions were freshly isolated.

5HT-uptake = target: T2, 5HT-uptake (Rattus norvegicus, UniProt P31652); assay: Serotonin uptake inhibition (5HT uptake) in synaptosomes; format: biochemical; settings: rat brain synaptosomes
T2 construct: synaptosomes from rat brain regions were freshly isolated; from tissue; host or cells: P2 synaptosome fraction from rat brain regions
T2 sequence (P31652 whole entry): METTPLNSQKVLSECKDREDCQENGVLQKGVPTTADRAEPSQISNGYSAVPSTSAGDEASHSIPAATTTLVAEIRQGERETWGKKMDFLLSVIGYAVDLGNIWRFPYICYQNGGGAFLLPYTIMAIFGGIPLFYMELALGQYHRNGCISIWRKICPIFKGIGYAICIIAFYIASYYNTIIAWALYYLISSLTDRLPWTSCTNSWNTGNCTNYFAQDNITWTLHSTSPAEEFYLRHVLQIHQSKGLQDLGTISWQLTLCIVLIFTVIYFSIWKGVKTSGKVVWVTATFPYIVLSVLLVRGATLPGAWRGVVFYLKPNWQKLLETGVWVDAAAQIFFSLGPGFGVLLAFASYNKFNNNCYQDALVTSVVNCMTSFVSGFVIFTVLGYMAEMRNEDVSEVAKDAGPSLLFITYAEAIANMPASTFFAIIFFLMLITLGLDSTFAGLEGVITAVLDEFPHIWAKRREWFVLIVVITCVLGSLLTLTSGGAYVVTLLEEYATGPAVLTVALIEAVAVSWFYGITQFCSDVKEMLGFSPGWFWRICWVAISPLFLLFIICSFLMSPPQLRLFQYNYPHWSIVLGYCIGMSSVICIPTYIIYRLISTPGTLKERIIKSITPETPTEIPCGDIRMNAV
Source text: Tests on Serotonin Uptake (5HT Uptake Inhibition)

α2A-receptor = target: T3, α2A-receptor (Homo sapiens, UniProt P08913); assay: α2A-assay, displacement of a marked ligand; format: binding; settings: human receptor membranes, read-out: alpha2A human, 1 μM, % inhibition
T3 construct: purchased
T3 sequence (P08913 1-465): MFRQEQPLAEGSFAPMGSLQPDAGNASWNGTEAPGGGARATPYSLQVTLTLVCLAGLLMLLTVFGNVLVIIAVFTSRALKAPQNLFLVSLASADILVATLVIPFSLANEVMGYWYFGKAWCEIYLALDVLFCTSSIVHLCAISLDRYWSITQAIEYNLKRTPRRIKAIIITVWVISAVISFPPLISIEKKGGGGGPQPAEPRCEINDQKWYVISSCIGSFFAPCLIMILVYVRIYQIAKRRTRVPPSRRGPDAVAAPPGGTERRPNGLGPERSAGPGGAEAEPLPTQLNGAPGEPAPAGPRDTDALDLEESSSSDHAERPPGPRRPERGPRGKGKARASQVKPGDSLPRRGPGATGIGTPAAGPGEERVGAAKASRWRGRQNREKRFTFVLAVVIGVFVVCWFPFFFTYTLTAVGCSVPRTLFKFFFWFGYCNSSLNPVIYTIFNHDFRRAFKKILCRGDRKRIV
Protocol: The bond was measured here by the displacement of a marked ligand. The test was carried out according to J. P. Devlin's instructions, “High throughput screening—the discovery of bioactive substances”, p. 275-453, Marcel Dekker, New York, 1997. Membranes containing […] (human) were obtained commercially.
Compounds according to the invention were tested in this assay: the measured results are recited in Table 5: […]

Row | Structure (SMILES) | inhibition at 10 µM (NA transporter) | inhibition at 10 µM (5HT-uptake) | NA-uptake, 10 μM, % inhibition (NA transporter) | 5HT-uptake, 10 μM, % inhibition (5HT-uptake) | inhibition at 1 µM (α2A-receptor)
1 | Cc1ccc(F)cc1S(=O)(=O)N1CCC2(CC1)CC(C(=O)NCCN(C)C)=NO2 [Example 37, 8-(5-fluoro-2-methyl-benzenesulphonyl)-1-oxa-2,8-diaza-spiro[4,5]dec-2-ene-3-carboxylic acid (2-dimethylamino-ethyl)-amide] | 52% | 70% |  |  | 
2 | Cc1ccc(S(=O)(=O)N2CCC3(CC2)CC(C(=O)N2CCN(c4ccc(C)cc4C)CC2)=NO3)cc1 [Example 33, [4-(2,4-dimethyl-phenyl)-piperazin-l-yl]-[8-(toluene-4-sulphonyl)-1-oxa-2,8-diazaspiro[4,5]dec-2-en-3-yl]methanone] |  |  | 42% | 57% | 
3 | Cc1ccc(CNC(=O)C2=NOC3(CCN(C(=O)c4ccc(Br)cc4)CC3)C2)o1 [Example 109, 8-(4-bromo-benzoyl)-1-oxa-2,8-diaza-spiro[4,5]dec-2-ene-3-carboxylic acid (5-methyl-furan-2-ylmethyl)-amide] | 40% | 56% |  |  | 
4 | O=C(NCc1cccs1)C1=NOC2(CCN(S(=O)(=O)c3ccccc3Cl)CC2)C1 [Example 156, 8-(2-chloro-benzenesulphonyl)-1-oxa-2,8-diaza-spiro[4,5]dec-2-ene-3-carboxylic acid (thiophen-2-ylmethyl)-amide] | 60% | 41% |  |  | 
5 | CCOC(=O)N1CCC(NC(=O)C2=NOC3(CCN(C(=O)C4CC4c4ccccc4)CC3)C2)CC1 (stereo not drawn) [Example 55, 4-{[8-(2-phenyl-cyclopropanecarbonyl)-1-oxa-2,8-diaza-spiro[4,5]dec-2-ene-3-carbonyl]-amino}-piperidine-1-carboxylic acid ethyl ester] | 50% | 65% |  |  | 
6 | O=C(NC1CCN(Cc2ccc3ccccc3c2)C1)C1=NOC2(CCN(S(=O)(=O)c3ccc(Cl)s3)CC2)C1 (stereo not drawn) [Example 50, 8-(5-chloro-thiophene-2-sulphonyl)-1-oxa-2,8-diaza-spiro[4,5]dec-2-ene-3 carboxylic acid (1-naphthalen-2-ylmethyl-pyrrolidin-3-yl)-amide] | 50% | 57% |  |  | 
7 | Cc1ccc(S(=O)(=O)N2CCC3(CC2)CC(C(=O)NCCc2ccc(Cl)c(Cl)c2)=NO3)cc1 [Example 9] |  |  | 77% | 75% | 
8 | CN(Cc1cccnc1)C(=O)C1=NOC2(CCN(S(=O)(=O)c3cccc(C(F)(F)F)c3)CC2)C1 [Example 101, 8-(3-trifluoromethyl-benzenesulphonyl)-1-oxa-2,8-diaza-spiro[4,5]dec-2-ene-3 carboxylic acid methyl-pyridin-3-ylmethyl-amide] | 43% | 46% |  |  | 
9 | O=C(NC1CCCC1)C1=NOC2(CCN(C(=O)c3ccc([N+](=O)[O-])cc3Cl)CC2)C1 [Example 5, 8-(2-chloro-4-nitro-benzoyl)-1-oxa-2,8-diaza-spiro[4,5]dec-2-ene-3-carboxylic acid cyclopentylamide] | 53% | 59% |  |  | 
10 | CN(C)S(=O)(=O)N1CCC2(CC1)CC(C(=O)N1CCN(Cc3ccc4ccccc4c3)CC1)=NO2 [Example 65, 3-(4-naphthalen-2-ylmethyl-piperazine-1-carbonyl)-1-oxa-2,8-diaza-spiro[4,5]dec-2-ene-8-sulphonic acid dimethylamide] | 63% | 81% |  |  | 
11 | CC1CCCCN1CCCNC(=O)C1=NOC2(CCN(S(=O)(=O)c3cc(Cl)ccc3Cl)CC2)C1 (stereo not drawn) [Example 15, 8-(2,5-dichloro-benzenesulphonyl)-1-oxa-2,8-diaza-spiro[4,5]dec-2-ene-3-carboxylic acid[3-(2-methyl-piperidin-1-yl)-propyl]-amide] |  |  | 41% | 55% | 
12 | COc1ccccc1C1CCN(C(=O)C2=NOC3(CCN(S(=O)(=O)c4ccc(Cl)s4)CC3)C2)CC1 [Example 151, [8-(5-chloro-thiophene-2-sulphonyl)-1-oxa-2,8-diaza-spiro[4,5]dec-2-en-3-yl]-[4-(2-methoxy-phenyl)-piperidin-1-yl]-methanone] |  |  |  |  | 33%
13 | CN(C)S(=O)(=O)N1CCC2(CC1)CC(C(=O)N1CCN(C3CCCCCC3)CC1)=NO2 [Example 144, 3-(4-cycloheptyl-piperazine-1-carbonyl)-1-oxa-2,8-diaza-spiro[4,5]dec-2-ene-8 sulphonic acid dimethylamide] | 56% | 41% |  |  | 
14 | O=C(C1=NOC2(CCN(S(=O)(=O)c3ccc(Cl)s3)CC2)C1)N1CCN(c2ccccc2)CC1 [Example 4, [8-(5-chloro-thiophene-2-sulphonyl)-1-oxa-2,8-diaza-spiro[4,5]dec-2-en-3-yl]-(4-phenyl-piperazin-1-yl)-methanone] | 45% | 54% |  |  | 
15 | O=C(C1=NOC2(CCN(S(=O)(=O)c3cccs3)CC2)C1)N1CCN(C2CCCCCC2)CC1 [Example 3, (4-cycloheptyl-piperazin-l-yl)-[8-(thiophene-2-sulphonyl)-1-oxa-2,8-diaza-spiro [4,5]dec-2-en-3-yl]-methanone] |  |  | 59% | 51% | 
16 | COc1ccc(S(=O)(=O)N2CCC3(CC2)CC(C(=O)NCCc2ccccc2F)=NO3)cc1 [Example 104] |  |  | 49% | 41% | 
17 | Cc1ccccc1N1CCN(C(=O)C2=NOC3(CCN(S(=O)(=O)c4cccs4)CC3)C2)CC1 [Example 27, [8-(thiophene-2-sulphonyl)-1-oxa-2,8-diaza-spiro[4,5]dec-2-en-3-yl]-(4-o-tolyl-piperazin-1-yl)-methanone] | 80% | 49% |  |  | 37%
18 | O=C(NCC1COc2ccccc2O1)C1=NOC2(CCN(S(=O)(=O)c3cccs3)CC2)C1 (stereo not drawn) [Example 21, 8-(thiophene-2-sulphonyl)-1-oxa-2,8-diaza-spiro[4,5]dec-2-ene-3-carboxylic acid (2,3-dihydro-benzo[1,4]dioxin-2-ylmethyl)-amide] | 61% |  |  |  | 31%
